Test results reported in patent US8084459B2, “Substituted quinazolinones for treating neurological conditions” (Prana Biotechnology Ltd, priority 2004, dated 2011).
Where “and” joins values, the source holds several entries; their conditions need not be identical. Equal entries are not always repeated.

What was measured:
Aβ 1-42 = molecular target: T1, Aβ 1-42 (Homo sapiens, UniProt P05067); test: Assay 1 Fluorometric H2O2 assay (peroxide); format: biochemical; details: inhibition of H2O2 generation by Aβ with copper
T1 construct: The reaction solutions contained Aβ 1-42 at concentrations
T1 sequence (P05067 672-713 limits assumed): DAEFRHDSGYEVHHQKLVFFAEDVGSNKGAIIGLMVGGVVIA
Description: Assay 1. Fluorometric H2O2 Assay
A fluorometric assay was used to test the ability of a test compound to inhibit hydrogen peroxide generation by Aβ in the presence of copper based on dichlorofluoroscein diacetate (DCF; Molecular Probes, Eugene Oreg.). The DCF solution (5 mM) in 100% dimethyl sulphoxide (previously purged with argon for 1 hr at 20° C.) was deacetylated in the presence of 0.025M NaOH for 30 min and neutralised at pH 7.4 to a final concentration of 1 mM. Horseradish peroxidase (HRP) stock solution was prepared to 1 μM at pH 7.4. The reactions were carried out in PBS, pH 7.4 in a 96 well plate (total volume=250 μl/well). The reaction solutions contained Aβ 1-42 at concentrations in the range of 50 nM to 1 μM, copper-glycine chelate (Cu-Gly), was prepared by adding CuCl2 to glycine in the ratio of 1:6 and added to the Aβ in the proportion 2Cu-Gly:1Aβ), reducing agents including dopamine (5 μM) or ascorbic acid, deacetylated DCF 100 μM, and HRP, 0.1 μM. 1-10 μM EDTA or another chelator may also be present as a control for free copper, but was not required for the assay to function. The reaction mixture was incubated at 37 C for 60 min. Catalase (4000 units/ml) and H2O2 (1-2.5 μM) standards in PBS pH 7.4 may be included as positive controls. Fluorescence was recorded using a plate reader with excitation and emission filters at […] respectively. H2O2 concentration may be established by comparing fluorescence with the H2O2 standards. Inhibition of Aβ H2O2 production was assayed by including a given concentration of test compound(s) in the test wells.

[1] = Assay 16 mouse plasma levels of test compounds; format: in vivo; details: for Conc. in mouse plasma: listed as PB 1076, 30 mg/kg
Description: Assay 16. Determination of Mouse Plasma Levels of Test Compounds PB 1075
(§1) Oral administration of PB 1075 at 30 mg/kg, as a suspension in Na-Carboxymethyl Cellulose (CMC) was administered by oral gavage to four mice. Two mice were sacrificed 30 minutes after administration and two mice were sacrificed 60 minutes after administration. Blood was obtained by cardiac puncture and plasma separated by centrifugation.
The concentration of PB 1075 was determined by LC/MS using the triple quadrupole instrument. The mobile phase consisted of an acetonitrile (ACN)/water gradient (containing 0.05% Formic acid) and the column was a Phenomenex Lunea 5 um C8 (50×2 mm) column.
The supplied acute toxicity mouse plasma samples were directly injected following a protein precipitation with ACN. The analytical method in plasma was linear in the range of 10 to 10,000 ng/ml (R^2=0.994). Recovery of PB 1075 from plasma was ˜100%.
as §1, with “1076” for “1075”
The concentration of PB 1076 was determined by LC/MS using the triple quadrupole instrument. The mobile phase consisted of an acetonitrile (ACN)/water gradient (containing 0.05% Formic acid) and the column was a Phenomenex Luna 5 μM C8 (50×2 mm) column.
The mouse plasma samples were directly injected following a protein precipitation with ACN. The analytical method in plasma was linear in the range of 500 to 10,000 ng/ml (R^2=0.999). Recovery of PB 1076 from plasma was ˜85%.
as §1, with “1077” for “1075”
The concentration of PB 1077 was determined by LC/MS using the triple quadrupole instrument. The mobile phase consisted of an acetonitrile (ACN)/water gradient (containing 0.05% Formic acid) and the column was a Phenomenex Luna 5 μM C8 (50×2 mm) column.
The mouse plasma samples were directly injected following a protein precipitation with ACN. The analytical method in plasma was linear in the range of 5 to 5,000 ng/ml (R^2=0.999). Recovery of PB 1077 from plasma was ˜92%.

[2] = test system: soluble and insoluble Aβ in the brain; test: Assay 11 effect on Aβ deposits in transgenic animals (soluble and insoluble Aβ, Western blot); format: in vivo, APP2576 transgenic mouse; details: APP2576 mice
Aβ plaques = test: Assay 14 transgenic mouse brain immunohistochemistry (plaque score); format: in vivo; details: APP2576 mice
From the text: Assay 14. Transgenic Mouse Brain Immunohistochemistry
The APP2576 transgenic mouse (Hsiao et al., 1996) as referred to in Assay 11 is utilized in this assay. The contralateral formalin-fixed mouse brain tissue is coronally cut. Sections (10 μm) are taken from the corresponding sites and treated with 80% formic acid for antigen retrieval. The primary antibody used is monoclonal antibody 1E8, which recognizes epitopes between residues 18 and 22 of Aβ (SmithKline Beecham, UK). Immunoreactivity is developed with secondary antibody linked to horseradish peroxidase (using a 3,39-diaminobenzidinechromagen) (Dako) and alkaline phosphatase (using 5-bromo-4-chloro 3-indoxyl phosphate and nitroblue tetrazolium chloride chromagen) (Dako). Plaque abundance per section is assessed by two operators blinded to treatment according to the following scale:
1=plaques present but very sparse
2=several plaques present
3=numerous plaques visible in restricted areas
4=plaques abundant and not restricted to any particular area.
Intermediate values eg 2.5 are assigned where applicable. Students ‘t’ test is used for comparisons between groups.

[3] = Assay 3(d) test compound cytotoxicity (MTS); format: cell-based; details: BL6Jx129sv, mouse, primary cortical neuronal cultures, cortical neurons; for viability at 4 days, 1 µM: read-out: Assay 3(d) Cytotoxicity (% viable at 1 uM); for viability at 4 days, 10 µM: read-out: Assay 3(d) Cytotoxicity (% viable at 10 uM)
Description: Primary Cortical Neuronal Cultures
Cortical cultures were prepared as previously described (White et al., 1998). Embryonic day 14 BL6Jx129sv mouse cortices were removed, dissected free of meninges and dissociated in 0.025% (wt/vol) trypsin. Dissociated cells were plated in 48 well culture plates at a density of 2×10^6 cells/mL in MEM with 25% (vol/vol) FCS and 5% (vol/vol) HS and incubated at 37° C., 2 hrs. Media was then replaced with Neurobasal media (Invitrogen Life Technologies) and B27 supplements (Invitrogen Life Technologies). Cultures were maintained at 37° C. in 5% CO2. Prior to experimentation, the culture medium was replaced with Neurobasal media and B27 minus antioxidants (Invitrogen Life Technologies).
(a) MTS Assay for Cell Viability
Cell viability is determined using the MTS assay. Culture medium is replaced with fresh neurobasal medium plus B27 supplements minus antioxidants. 1/10 volume MTS solution (Cell Titre 96 Aqueous One, Promega Corporation) and incubated at 37° C., 2 hrs. 200 microlitre aliquots are measured with a spectrophotometer at 560 nm.
(d) Assay for Test Compound Cytoxicity
Neuronal cortical cells were cultured for five days as per Assay 2 in NB media and B27 supplement.
On day six the test compounds were added to the neuronal cell cultures in NB media and B27 supplement minus antioxidants.
Test compounds were dissolved in 100% DMSO to a concentration of 2.5 mM (10 mM if excess compound was weighed out per vial—then diluted to 2.5 mM). 2.5 mM stock solution was serially diluted 1 in 10 to give working solutions of 250 uM, 25 uM, 2.5 uM. Test compounds were not added directly to cells, instead they were added to a 48 well ‘Drug Plate’ as comprised below:
Preparation of “Drug Plate”:
• Well 1: 576 ul NB+B27 (no antioxidant)*+24 ul 2.5 uM test compound • Well 2: 576 ul NB+B27 (no antioxidant)+24 ul 25 uM test compound • Well 3: 576 ul NB+B27 (no antioxidant)+24 ul 250 uM test compound • Well 4: 576 ul NB+B27 (no antioxidant)+24 ul 2.5 uM test compound • Well 5: 576 ul NB+B27 (no antioxidant)+24 ul 25 uM test compound • Well 6: 576 ul NB+B27 (no antioxidant)+24 ul 250 uM test compound • Well 7: 576 ul NB+B27 (no antioxidant)+24 ul test compound diluent** • Well 8: 600 ul NB+B27 (no antioxidant)
The Drug Plate was incubated at 37° C. for 15 mins. 200 ul of each well was added in triplicate to the corresponding cell plate. The cell plate was incubated at 37° C., for 4 days, (2 compounds are tested on each plate of cells).
* NB media and B27 (no antioxidants),
** PBT diluent 10% DMSO in NB+B27 (no antioxidants)
On completion of the assay, 1/10 volume MTS was added per well of plate (ie 25 ul/250 ul). The plates were incubated at 37° C. for 2 hrs, and then absorbance was read at 560 nm.

[4] = molecular target: T2, A-beta 1-42 aggregates formed by precipitation with zinc (Homo sapiens, UniProt P05067); test: Assay 17 synthetic amyloid plaque disaggregation assay (thioflavin T); format: biochemical; details: for Assay 17 percentage disaggregation at 5 uM: 5 uM (printed as 5/%); for EC50: Aβ1-42/Zn/ThT aggregates, 2 hours, 37 degrees
T2 construct: host or cells: chemically synthesised peptide
T2 sequence (P05067 672-713 limits assumed): as above
Description: Assay 17. Synthetic Amyloid Plaque Disaggregation Assay
This assay measures the ability of test compounds to dissolve aggregates of synthetic Alzheimer's A-beta 42 residue peptide formed by precipitation with zinc.
The synthetic plaque disaggregation assay is a thioflavin T fluorescence-based assay which measures the ability of a test compound to disaggregate synthetic aggregates generated by the incubation of Alzheimer's amyloid A-beta protein (Aβ) in the presence of zinc.
The 42 residue A-beta which is the form most prevalent in Alzheimer's amyloid plaques is precipitated by the addition of zinc salts to form a beta sheet conformational aggregate physicochemically congruent with the crystalline amyloid plaque cores. […] Solubilisation of the metal bound aggregates by a test compound will result in reduced fluorescence as the beta sheet conformation is lost. The activity of a compound in this assay is a combination of its metal chelating properties, solubility, hydrophobicity and structural elements which influence interaction with the amyloid mass.
The assay models the process by which a test compound is acting, either to compete for bound metals with Aβ or alternatively to displace metals by competitively binding at the metal binding site, resulting in Aβ precipitated by zinc, being solubilised, as an in vitro model of plaque disaggregation.
Aliquots of synthetic Aβ peptide are prepared for convenience. Aβ is dissolved in distilled H2O and peptide concentration is assessed by absorption at 214 nm against a validated standard curve. Abeta/Zn aggregates in the presence of solvent only (DMSO) and control vehicle (PBS) are included in each assay as negative controls. The test compounds were dissolved in DMSO to a concentration of 5 mM. Dilutions were made in DMSO as appropriate to 100 times the desired final concentration and added immediately to the A-beta aggregates.
A-beta 1-42 is incubated with ZnCl2 and Thioflavine T (ThT) in a molar ratio of (1:2:2) for 24 hours at 37 degrees on a rotating wheel in PBS pH 6.6. Following incubation, aggregates are incubated with test drug for a further 2 hours at 37 degrees with rotation. PBS blank, untreated aggregates and DMSO controls are included with each experiment. After 2 hour incubation, samples are measured for ThT fluorescence using an LS55 (Perkin Elmer) fluorimeter in a cuvette.
Data are generated in FL Winlab software (Perkin Elmer) and analysed using GraphPad Prism v4.0 software. Data are calculated as the average of multiple reads.
The two values together provide a measure of the efficiency of disaggregation.

Structure (SMILES) | IC50 (Aβ 1-42) [µM] | Conc. in mouse plasma ([1]; 30 min after oral dosing at 30 mg/kg, single mouse) [ng/mL] | Conc. in mouse plasma ([1]; 60 min after oral dosing at 30 mg/kg, single mouse) | Assay 16 Mice plasma concentration ([1]; highest level found in mice (Up to), oral dosing 30 mg/kg described for PB 1075-1077) | concentration at 30 min ([1]; mouse, plasma, po, 30 mg/kg, 30 min after oral dosing at 30 mg/kg, single mouse, read-out: Conc. in mouse plasma) [ng/mL] | Tg mice Insoluble Fraction: % change compared with vehicle alone control mice ([2]; insoluble Aβ) | Tg mice Soluble Fraction: % change compared with vehicle alone control mice ([2]; soluble Aβ) | Plaques score: average count score per treatment group relative to the vehicle (sham) treated group (Aβ plaques) | viability at 4 days, 1 µM [3] [%] | viability at 4 days, 10 µM [3] [%] | Assay 17 percentage disaggregation at 5 uM [4] | EC50 [4] [µM] | disaggregation (rating in words) [4]
Br.O=c1c2c(Cl)cc(Cl)c(O)c2ncn1CC1CC1 [Compound 1076] | 0.45 | 1593.61 | 1167.52 ng/mL and 2697.62 ng/mL | Up to 2698 ng/mL | 2330 | −21% (insol) | −24% (sol) | −29% (plaque) |  |  |  |  | 
Br.O=c1c2c(Cl)cc(Cl)c(O)c2ncn1Nc1ccc(F)cc1F [Compound 1100] | 0.42 |  |  |  |  |  |  |  | 100 | 92 | 42% | 17 | 
Br.O=c1c2c(Cl)cc(Cl)c(O)c2ncn1Cc1cccc(Cn2cnc3c(O)c(Cl)cc(Cl)c3c2=O)n1 [Compound 1101] | < 4.1 |  |  |  |  |  |  |  | 89 | 17 | 45 5/% | 11.7 | 
CCN(CC)Cc1nc2c(O)c(Cl)cc(Cl)c2c(=O)[nH]1 [Compound 1128] | 0.34 |  |  |  |  |  |  |  |  |  | 41 5/% | 13.2 | very good (A test compound able to achieve an IC50 at less than 20 μM and scoring greater than 40% disaggregation at 5 μM is considered ‘very good’)
O=c1c2c(Cl)ccc(O)c2ncn1CC1CC1 [Compound 1132] |  |  |  |  |  |  |  |  |  |  | 16 5/% |  | 
